The source of these data is ChEMBL document CHEMBL3639140, “Naphthyridine derivatives as inhibitors of hypoxia inducible factor (HIF) hydroxylase” (2014).

pIC50: −log10 of the molar value.

The test deals with Egl nine homolog 1 (Homo sapiens, UniProt Q9GZT9). Put plainly: For example, a HIF peptide for use in the HIF-PH assay is [methoxycoumarin]-[…]-amide. HIF-PH, e.g., HIF-PH2 (EGLN1), can be expressed in, e.g., insect Hi5 cells, and partially purified, e.g., through a SP ion exchange chromatography column. Format: cell-based, BTI-TN-5B1-4.
Chain of Egl nine homolog 1 (Q9GZT9 whole entry): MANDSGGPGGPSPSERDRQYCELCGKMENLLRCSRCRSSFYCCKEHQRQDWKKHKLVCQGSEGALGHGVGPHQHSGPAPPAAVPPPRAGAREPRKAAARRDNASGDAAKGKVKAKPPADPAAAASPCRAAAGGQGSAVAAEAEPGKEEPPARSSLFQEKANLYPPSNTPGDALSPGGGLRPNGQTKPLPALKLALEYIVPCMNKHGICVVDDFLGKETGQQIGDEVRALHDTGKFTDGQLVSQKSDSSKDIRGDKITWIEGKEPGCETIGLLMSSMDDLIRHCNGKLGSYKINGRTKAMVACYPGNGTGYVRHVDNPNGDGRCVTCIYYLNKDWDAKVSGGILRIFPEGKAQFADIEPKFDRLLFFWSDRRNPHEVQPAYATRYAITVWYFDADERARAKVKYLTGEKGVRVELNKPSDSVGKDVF

The molecule `O=C(NCc1ccncc1)c1ncc2c(=O)n(Cc3ccccc3)ccc2c1O` showed a pIC50 of 6.72.

In general, pIC50 refers to the IC50 on a negative log10 scale, so that one unit is a factor of ten. A low value points to a high IC50.
